Results reported in patent publication US5059624A, “Guanidine derivatives having hypotensive activity, composition containing them and process for obtaining them” (Consiglio Nazionale Delle Ricerche, priority 1988, dated 1991).
Where two headings read alike, the source gives them in different places.

Legend:
male Wistar rats [1] = experiment: Comparison with known active ingredients in male Wistar rats under sodium thiopental anaesthesia, rapid i.v. or 5 min infusion; type: in vivo, rat (male Wistar); settings: for Δ AP DIASTOLIC / Δ AP SYSTOLIC / Δ HR / Δ dp/dt: i.v., maximum response
Method: In order to compare the activity of the compounds of the present invention to that of the products of the prior art, various doses of known anti-hypertensive, hypotensive and vasoactive drugs were administered to male Wistar rats under general anaesthesia by sodium thiopental (50 mg/kg, i.p.). The administration was effected through "rapid" i.v. route or through intravenous infusion (inf.) for a time of 5 minutes.
The dose of each product is referred to the base, and the volumes injected were of 100 mcl in case of i.v. administration and […] total (0.9% sodium chloride solution) in case of infusion. The various parameters were evaluated in the same way as in the preceding experiments.

male Wistar rats [2] = tested on: male Wistar rats

NC[C@H](O)c1ccc(O)c(O)c1 [Noradrenaline]
Δ AP DIASTOLIC (male Wistar rats [1]; 1 mcg/kg): +31 ± 2 mmHg
Δ AP SYSTOLIC (male Wistar rats [1]; 1 mcg/kg): +44 ± 3 mmHg
Δ HR (male Wistar rats [1]; 1 mcg/kg): +14 ± 4 beats/min
Δ dp/dt (male Wistar rats [1]; 1 mcg/kg): +4314 ± 415 mmHg/sec

COc1ccc(Cc2nccc3cc(OC)c(OC)cc23)cc1OC [Papaverine]
Δ AP DIASTOLIC (male Wistar rats [1]; 2 mg/kg): -18 ± 3 mmHg
Δ AP SYSTOLIC (male Wistar rats [1]; 2 mg/kg): -23 ± 3 mmHg
Δ HR (male Wistar rats [1]; 2 mg/kg): -21 ± 5 beats/min
Δ dp/dt (male Wistar rats [1]; 2 mg/kg): -604 ± 102 mmHg/sec
general effects on the various haemodynamic parameters (in words) (male Wistar rats [1]; rat): general "depressive" effects

CC(C)=CCN=C(N)N [galegine, prenylguanidine, reference compound]
Δ AP DIAST (male Wistar rats [2]; 50 μg/kg i.v.): -19 ± 3 mmHg
Δ AP SYST (male Wistar rats [2]; 50 μg/kg i.v.): -18 ± 1 mmHg
Δ HR (male Wistar rats [2]; 50 μg/kg i.v.): -32 ± 6 beats/min
Δ RF (male Wistar rats [2]; 50 μg/kg i.v.): +38 ± 4%
Δ TV (male Wistar rats [2]; 50 μg/kg i.v.): +43 ± 4%
Δ dp/dt (male Wistar rats [2]; 50 μg/kg i.v.): +1498 ± 131 mmHg/sec
Δ AP DIAST (male Wistar rats [2]; 100 μg/kg i.v.): -28 ± 6 mmHg
Δ AP SYST (male Wistar rats [2]; 100 μg/kg i.v.): -22 ± 2 mmHg
Δ HR (male Wistar rats [2]; 100 μg/kg i.v.): -46 ± 7 beats/min
Δ RF (male Wistar rats [2]; 100 μg/kg i.v.): +68 ± 4%
Δ TV (male Wistar rats [2]; 100 μg/kg i.v.): +63 ± 5%
Δ dp/dt (male Wistar rats [2]; 100 μg/kg i.v.): +1712 ± 90 mmHg/sec
Δ AP DIAST (male Wistar rats [2]; 200 μg/kg i.v.): -29 ± 5 mmHg
Δ AP SYST (male Wistar rats [2]; 200 μg/kg i.v.): -23 ± 5 mmHg
Δ HR (male Wistar rats [2]; 200 μg/kg i.v.): -94 ± 6 beats/min
Δ RF (male Wistar rats [2]; 200 μg/kg i.v.): +69 ± 7%
Δ TV (male Wistar rats [2]; 200 μg/kg i.v.): +64 ± 7%
Δ dp/dt (male Wistar rats [2]; 200 μg/kg i.v.): +1797 ± 178 mmHg/sec
Δ AP DIAST (male Wistar rats [2]; 400 μg/kg i.v.): -26 ± 4 mmHg
Δ AP SYST (male Wistar rats [2]; 400 μg/kg i.v.): -25 ± 6 mmHg
Δ HR (male Wistar rats [2]; 400 μg/kg i.v.): -107 ± 4 beats/min
Δ RF (male Wistar rats [2]; 400 μg/kg i.v.): +76 ± 9%
Δ TV (male Wistar rats [2]; 400 μg/kg i.v.): +87 ± 9%
Δ dp/dt (male Wistar rats [2]; 400 μg/kg i.v.): +2568 ± 314 mmHg/sec
Δ AP DIAST (male Wistar rats [2]; 800 μg/kg i.v.): -26 ± 4 mmHg
Δ AP SYST (male Wistar rats [2]; 800 μg/kg i.v.): -27 ± 4 mmHg
Δ HR (male Wistar rats [2]; 800 μg/kg i.v.): -106 ± 11 beats/min
Δ RF (male Wistar rats [2]; 800 μg/kg i.v.): +70 ± 8%
Δ TV (male Wistar rats [2]; 800 μg/kg i.v.): +31 ± 3%
Δ dp/dt (male Wistar rats [2]; 800 μg/kg i.v.): +1926 ± 223 mmHg/sec
Δ AP DIAST (male Wistar rats [2]; 1600 μg/kg i.v.): -25 ± 4 mmHg
Δ AP SYST (male Wistar rats [2]; 1600 μg/kg i.v.): -22 ± 4 mmHg
Δ HR (male Wistar rats [2]; 1600 μg/kg i.v.): -85 ± 5 beats/min
Δ RF (male Wistar rats [2]; 1600 μg/kg i.v.): +133 ± 14%
Δ TV (male Wistar rats [2]; 1600 μg/kg i.v.): +55 ± 6%
Δ dp/dt (male Wistar rats [2]; 1600 μg/kg i.v.): +1724 ± 104 mmHg/sec
Δ AP DIAST (male Wistar rats [2]; 3200 μg/kg i.v.): -36 ± 4 mmHg
Δ AP SYST (male Wistar rats [2]; 3200 μg/kg i.v.): -22 ± 3 mmHg
Δ HR (male Wistar rats [2]; 3200 μg/kg i.v.): -98 ± 16 beats/min
Δ RF (male Wistar rats [2]; 3200 μg/kg i.v.): +85 ± 6%
Δ TV (male Wistar rats [2]; 3200 μg/kg i.v.): +40 ± 7%
Δ dp/dt (male Wistar rats [2]; 3200 μg/kg i.v.): +2996 ± 202 mmHg/sec
Δ AP DIAST (male Wistar rats [2]; 6400 μg/kg i.v.): -36 ± 2 mmHg
Δ AP SYST (male Wistar rats [2]; 6400 μg/kg i.v.): -18 ± 4 mmHg
Δ HR (male Wistar rats [2]; 6400 μg/kg i.v.): -42 ± 4 beats/min
Δ RF (male Wistar rats [2]; 6400 μg/kg i.v.): +37 ± 11%
Δ TV (male Wistar rats [2]; 6400 μg/kg i.v.): +29 ± 8%
Δ dp/dt (male Wistar rats [2]; 6400 μg/kg i.v.): +4494 ± 371 mmHg/sec
Δ AP DIAST (male Wistar rats [2]; 12800 μg/kg i.v.): -42 ± 3 mmHg
Δ AP SYST (male Wistar rats [2]; 12800 μg/kg i.v.): -22 ± 2.5 mmHg
Δ HR (male Wistar rats [2]; 12800 μg/kg i.v.): -15 ± 7 beats/min
Δ RF (male Wistar rats [2]; 12800 μg/kg i.v.): +23 ± 7%
Δ TV (male Wistar rats [2]; 12800 μg/kg i.v.): +25 ± 5%
Δ dp/dt (male Wistar rats [2]; 12800 μg/kg i.v.): +6420 ± 417 mmHg/sec
Δ AP DIAST (male Wistar rats [2]; 25600 μg/kg i.v.): -30 ± 9 mmHg
Δ AP SYST (male Wistar rats [2]; 25600 μg/kg i.v.): -19 ± 3 mmHg
Δ HR (male Wistar rats [2]; 25600 μg/kg i.v.): -21 ± 6 beats/min
Δ RF (male Wistar rats [2]; 25600 μg/kg i.v.): -34 ± 12%
Δ TV (male Wistar rats [2]; 25600 μg/kg i.v.): -57 ± 8%
Δ dp/dt (male Wistar rats [2]; 25600 μg/kg i.v.): +6471 ± 274 mmHg/sec
Δ AP DIAST (male Wistar rats [2]; 51200 μg/kg i.v.): -50 ± 7 mmHg
Δ AP SYST (male Wistar rats [2]; 51200 μg/kg i.v.): -80 ± 8 mmHg
Δ HR (male Wistar rats [2]; 51200 μg/kg i.v.): -298 ± 19 beats/min
Δ RF (male Wistar rats [2]; 51200 μg/kg i.v.): -100%
Δ TV (male Wistar rats [2]; 51200 μg/kg i.v.): -100%
Δ dp/dt (male Wistar rats [2]; 51200 μg/kg i.v.): -4708 ± 312 mmHg/sec
death of the tested animals at extremely high doses (male Wistar rats [2]; 25,600 and 51,200 ug/kg i.v., rat): primary respiratory depression (reduction of RF and TV) and a subsequent arterial hypotension. bradycardia and decrease in the cardiac inotropism (dp/dt), with death of the tested animals
